One assay has as its system T-47D cells. Kind of assay: 6-day cell proliferation assay, T-47D. Type of assay: cell-based, human. The following applies: Homo sapiens, T47D, 144 h, proliferation over 6 days. Here is the method: (§1) Human breast cancer cell lines MCF7, BT-474, T-47D, MDA-MB-453, MDA-MB-231, Hs 578T, HCC38, SK-BR-3, and DU4475 were purchased from the American Type Culture Collection (ATCC) and no additional cell authentication was performed. The TSE human breast cancer cell line was supplied by Dr. Steven Abcouwer (University of Michigan). All breast cancer cells were cultured at 37° C. under a 5% CO2 atmosphere in RPMI 1640 medium containing 2 mM glutamine (Gibco) and supplemented with 10% fetal bovine serum (FBS) (Gibco). The 293T cell line (ATCC) used for generating lentivirus particles was cultured as above but using DMEM, high glucose (Gibco).
(§2) Culture medium was added to 12-well plates (1 ml/well) and wells were seeded with cells at Day 0 as follows. MCF7, T-47D, BT-474, HCC38 cells: […] cells/well. MDA-MB-453 and MDA-MB-231 cells: 1×10^4 cells/well. TSE and Hs 578T cells: 0.3×10^4 cells/well. After 16 hours, culture medium was replaced with fresh medium supplemented with appropriate concentrations of inhibitors and was subsequently replaced every 48 hours. On Day 6 cells were trypsinized and suspended in an appropriate volume of culture medium, and the total number of cells per well was determined using a hemocytometer or a TC20 Automated Cell Counter (Bio-Rad).

Another assay deals with HCC38 cells. In words: 6-day cell proliferation assay, HCC38. The format is cell-based, human. To be noted: Homo sapiens, 144 h; HCC38, proliferation over 6 days. Here is the method:
as §1, §2

For the next assay, the system named is MCF7 cells. Kind of assay: 6-day cell proliferation assay, MCF7. The format is cell-based, human. To be noted: Homo sapiens, 144 h; MCF7, proliferation over 6 days. Here is the method:
as §1, §2

A further assay has as its system TSE cells. In words: 6-day cell proliferation assay, TSE. Type of assay: cell-based, human. To be noted: Homo sapiens, 144 h; TSE, proliferation over 6 days. Here is the method:
as §1, §2

The next assay deals with MDA-MB-231 cells. In words: 6-day cell proliferation assay, MDA-MB-231. Type of assay: cell-based, human. To be noted: Homo sapiens, 144 h; MDA-MB-231, proliferation over 6 days. As to the method: as §1, §2
The subject of another assay is BT-474 cells. Kind of assay: 6-day cell proliferation assay, BT-474. Type of assay: cell-based, human. The following applies: Homo sapiens, 144 h; BT-474, proliferation over 6 days. Here is the method:
as §1, §2

The subject of the next assay is Hs 578T cells. In words: 6-day cell proliferation assay, Hs 578T. The format is cell-based, human. The following applies: Homo sapiens, 144 h, proliferation over 6 days. As to the method:
as §1, §2

For a further assay, the system named is MDA-MB-453 cells. Kind of assay: 6-day cell proliferation assay, MDA-MB-453. Type of assay: cell-based, human. To be noted: Homo sapiens, 144 h; MDA-MB-453, proliferation over 6 days. As to the method:
as §1, §2

For assay [1], the target named is T1, recombinant full-length human GLS2 (Homo sapiens, UniProt Q9UI32).
T1 construct: GLS2 (residues 38 to 602) in E. coli; inferred from pQE80 vector and Ni-NTA/imidazole purification; made in house; host or cells: E. coli BL21(DE3)
T1 sequence (Q9UI32 38-602): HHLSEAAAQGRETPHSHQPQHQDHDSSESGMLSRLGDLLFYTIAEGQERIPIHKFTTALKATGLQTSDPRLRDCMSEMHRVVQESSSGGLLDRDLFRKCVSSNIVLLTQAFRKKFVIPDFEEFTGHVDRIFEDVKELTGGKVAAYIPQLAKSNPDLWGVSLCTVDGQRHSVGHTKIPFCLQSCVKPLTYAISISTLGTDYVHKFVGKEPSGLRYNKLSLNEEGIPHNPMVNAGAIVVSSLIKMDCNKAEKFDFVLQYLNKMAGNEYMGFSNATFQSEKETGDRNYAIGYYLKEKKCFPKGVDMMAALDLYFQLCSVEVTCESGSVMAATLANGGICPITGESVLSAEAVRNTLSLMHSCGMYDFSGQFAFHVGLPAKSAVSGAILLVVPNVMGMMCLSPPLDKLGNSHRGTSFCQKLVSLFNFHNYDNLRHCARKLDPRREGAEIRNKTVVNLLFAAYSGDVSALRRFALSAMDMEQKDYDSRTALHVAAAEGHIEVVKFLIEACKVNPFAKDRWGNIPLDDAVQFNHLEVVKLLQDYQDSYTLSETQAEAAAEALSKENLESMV
In words: Real-time recombinant glutaminase activity assay, GLS2. The format is biochemical. The following applies: different concentrations. Here is the method: Real-time monitoring of glutaminase activity through NADH production was performed on a Cary Eclipse fluorescence spectrometer. The excitation and emission wavelengths were set at 340 nm and 460 nm, respectively. To a 1 ml cuvette, 900 μl of assay buffer was added, followed by 10 μl of GDH, 40 μl of 50 mM NAD and 20 μl of either DMSO or various dilutions of 968. Then, 100 μl of either 100 nM GAC or 500 nM GLS2 was added to this mixture and the fluorescence emission was monitored in real time. After 30 s, 200 μl of a mixture of glutamine and K2HPO4 was added such that the final concentrations of K2HPO4 and glutamine were 100 mM and 20 mM, respectively. The initial velocity of glutamine hydrolysis was obtained from the slopes of the linear portion of the kinetic curve.
Recombinant GAC and GLS2 were expressed in E. coli as described in Huang et al., “Characterization of the Interactions of Potent Allosteric Inhibitors with Glutaminase C, a Key Enzyme in Cancer Cell Glutamine Metabolism,” J. Biol. Chem. 293:3535-3545 (2018), which is hereby incorporated by reference in its entirety. Briefly, E. coli strain BL21(DE3) (Thermo Fisher Scientific) were transformed with vector pQE80-GAC-72-598 or with pQE80-GLS2-38-602 to express the processed forms of GAC and GLS2, respectively. For both constructs, expression was induced with 0.3 mM IPTG for 20 hours at 18° C., and cells were then harvested by centrifugation and lysed by sonication in binding buffer (500 mM NaCl, 50 mM Tris-HCl pH 8.5, 10 mM imidazole, 5 mM β-mercaptoethanol, 1 mM benzamidine chloride). The lysate was centrifuged, and the supernatant applied to a Ni-NTA column which was then washed with 100 column volumes of binding buffer followed by 10 volumes of wash buffer (500 mM NaCl, 50 mM Tris-HCl pH 8.5, 40 mM imidazole, 5 mM β-mercaptoethanol, 1 mM benzamidine chloride). Protein was eluted with 5 column volumes of elution buffer (500 mM NaCl, 300 mM imidazole-HCl pH 7.5, 5 mM β-mercaptoethanol, 1 mM benzamidine chloride). The eluate was centrifugally concentrated and then further purified by FPLC using a HiLoad 16/600 Superdex 200 column (GE Healthcare) with 150 mM NaCl, 5 mM Tris-HCl pH 7.5.

For a further assay, the system named is breast cancer cell lines. The following applies: previously reported (Huang et al. 2018); cited from earlier work.
Assay [2] concerns GLS2 protein levels in TSE cells. Kind of assay: Western blot of GLS2 in TSE cells treated with hypomethylating agent. Type of assay: cell-based, human. The following applies: 48 hours.
Protocol: Cells, or fractionated mitochondria and nuclei, were lysed with ice-cold lysis buffer (50 mM HEPES pH 8.0, 150 mM NaCl, 25 mM NaF, 1% (v/v) Triton X-100, 1 mM MgCl2, 50 mM β-glycerophosphate, 30 μg/ml leupeptin, 5 μg/ml aprotinin), and insoluble debris cleared by centrifugation at 4° C. Protein concentrations were determined by Bradford assay (Bio-Rad), and lysate was then boiled for 10 min in reducing SDS-sample buffer. Lysate proteins (20 μg total protein/lane, except for the cell fractionation experiment in which 5 μg total protein/lane was used) were then resolved on Novex 12% Tris-Glycine Mini Gels (Thermo Fisher Scientific) and transferred to PVDF membrane (PerkinElmer). Membranes were blocked in 7% BSA in Tris-Buffered Saline plus 0.05% TWEEN 20 (TBST) for 1 hour at room temperature and probed overnight at 4° C. in primary antibody solution in TBST (see Table 3 for antibody dilutions). They were then washed with TBST and incubated in TBST containing 25% (v/v) non-fat dry milk powder and anti-Rabbit or anti-Mouse secondary antibody (1:2500) for 1 hour. Finally, membranes were washed in TBST, and imaged using Western Lightning Plus-ECL (PerkinElmer) and HyBlot ES autoradiography film (Denville Scientific Inc.).

A value given as a limit tells only on which side of the number the result lay.

The source of these data is US20250275964A1, “METHODS OF INHIBITING LIVER-TYPE GLUTAMINASE, GLS2” (CORNELL UNIVERSITY, priority 2019, published 2025).

As usually defined, the EC50 is the concentration needed to bring the measured effect to its halfway point. Low values mean greater potency, high ones weaker potency.

Regarding `O=C(Cc1cccc(OC(F)(F)F)c1)Nc1ccc(CCCCc2nnc(NC(=O)Cc3ccccn3)s2)nn1` [CB-839], the EC50 in the assay with T-47D cells was over 1000 nM; in the assay on HCC38 cells, 49 nM; with MCF7 cells it was over 1000 nM; in the assay on TSE cells it was 41 nM; in the assay on MDA-MB-231 cells, 19 nM; in the assay on BT-474 cells, over 1000 nM. For the same molecule, the EC50 is 31 nM in the assay on Hs 578T cells and over 1000 nM with MDA-MB-453 cells. The “inhibition of recombinant GLS2 activity” value in assay [1] is on record as “resistance”.
Regarding `O=C(Cc1ccccc1)Nc1nnc(NC2CCN(c3nnc(NC(=O)Cc4ccccc4)s3)CC2)s1` [UPGL00004], the “selectivity profile, basal- versus luminal-subtype cells” value in the assay on breast cancer cell lines is given as “same selectivity profile”.
On to `Nc1ncn([C@@H]2O[C@H](CO)[C@@H](O)[C@H]2O)c(=O)n1` [azacitidine], for which the GLS2 protein levels entry in assay [2] is on record as “increased”.
